Several values for one entry are separate records, joined by “and”; a condition that tells them apart may be missing. Equal values may be shown once. Entries after “also recorded” stand apart in the source; their conditions may differ.

For one assay, the system named is T1, TPC2^LL/AA.
T1 construct: expressed in transfected cells; host or cells: HEK293
Description: Inside-out patch recordings of ITPC2. It counts as biochemical, human. The note with it: for time course of LyNa-VA1.2-induced ITPC2: I/o.

Another assay deals with T2, TPC2 I551R.
T2 construct: expressed in transfected cells
Description: Whole-endolysosome recordings of ITPC2-I551R. It counts as biochemical, human.

Assay [1] concerns non-transfected HEK293 cells. Description: Whole-cell recordings in non-transfected cells. It counts as cell-based, Homo sapiens. An excerpt:
To our surprise, 5 out of the 23 compounds are well characterized as tri-cyclic anti-depressants (TCAs), which are believed to act on neurotransmitter transporters or voltage-gated Na^+ channels ([Cheng and Bahar, 2019]; [Pancrazio et al., 1998]). We therefore characterized the responses of TPC2 channels to TCAs in detail using electrophysiological methods. We first performed whole-cell recordings in HEK293 cells that were transfected with surface-expressed TPC2 mutant channels (TPC2-L^11L^12-AA; abbreviated as TPC2^LL/AA hereafter). No functional difference was noted between wild-type (WT) TPC2 and TPC2^LL/AA channels in terms of channel permeation and gating properties ([Wang et al., 2012]). To facilitate the detection of TPC2-specific currents, we used symmetric Na^+ solutions in the bath (extracellular) and pipette (cytosolic) solutions ([Wang et al., 2012]).
Whole-cell recordings were performed using pipette electrodes with resistance of 3–5 MΩ. […] All bath solutions were applied via a perfusion system that allowed complete solution exchange within a few seconds. Data were collected using an Axopatch 200A patch clamp amplifier, Digidata 1440, and pClamp 10.2 software (Axon Instruments). […] All experiments were conducted at room temperature (21–23°C), and all recordings were analyzed with pClamp 10.2, and Origin 8.0 (OriginLab, Northampton, MA).

The test system of a further assay is T3, TRPML1.
T3 construct: expressed in transfected cells
The experiment in a line: Whole-endolysosome recordings of ITRPML1. It counts as biochemical. The note with it: TRPML1-transfected cells.

Where [2] appears, read: inside out, 200 µM, individual recordings.
[3] abbreviates: inside-out, 200 µM, mean ± S.E.M.

On to `CNCCCN1c2ccccc2CCc2ccccc21` [LyNa-VA1.2, Desipramine], for which, in the assay on TPC2^LL/AA (200 µM), the “activation of ITPC2 in inside-out patch (in words)” value is on record as “evoked”. In addition, the “time course of LyNa-VA1.2-induced ITPC2” value is on record as -0.06927 in the assay on TPC2^LL/AA (time 0 s); -0.0966 in the assay with TPC2^LL/AA (time 2 s); -0.00941 with TPC2^LL/AA (time 4 s); -8.49E-04 in the assay on TPC2^LL/AA (time 6 s); -0.06407 with TPC2^LL/AA (time 8 s); -0.08365 with TPC2^LL/AA (time 10 s). Further, the “time course of LyNa-VA1.2-induced ITPC2” value with TPC2^LL/AA (time 12 s) is -0.08538; with TPC2^LL/AA (time 14 s), -0.09864; in the assay with TPC2^LL/AA (time 16 s), -0.09741; with TPC2^LL/AA (time 18 s) it was -0.1284; in the assay on TPC2^LL/AA (time 20 s), -0.2599; with TPC2^LL/AA (time 22 s), -0.3874. Also, the “time course of LyNa-VA1.2-induced ITPC2” value with TPC2^LL/AA (time 24 s) is -0.5101; in the assay on TPC2^LL/AA (time 26 s), -0.54; in the assay on TPC2^LL/AA (time 28 s), -0.5044; in the assay with TPC2^LL/AA (time 30 s), -0.6046; in the assay with TPC2^LL/AA (time 32 s) it was -0.6923; in the assay on TPC2^LL/AA (time 34 s), -0.8892. In addition, the “time course of LyNa-VA1.2-induced ITPC2” value is -0.754 in the assay on TPC2^LL/AA (time 36 s); -0.8074 in the assay with TPC2^LL/AA (time 38 s); -0.7387 with TPC2^LL/AA (time 40 s); -0.8794 in the assay on TPC2^LL/AA (time 42 s); -0.9937 in the assay on TPC2^LL/AA (time 44 s); -1 in the assay with TPC2^LL/AA (time 46 s). Moreover, the “time course of LyNa-VA1.2-induced ITPC2” value in the assay on TPC2^LL/AA (time 48 s) is -0.9555; with TPC2^LL/AA (time 50 s), -0.9211; with TPC2^LL/AA (time 52 s), -0.87. In addition, in the assay on TPC2^LL/AA (setting [2]), the “Latency of induced ITPC2” value is 8 s and 12 s and 14 s. The “Time constant (τ) of induced ITPC2” value in the assay on TPC2^LL/AA (setting [2]) was 13.9 s and 16.3 s and 17.9 s and 21.3 s. Moreover, the “latency of TPC2 activation” value in the assay on TPC2^LL/AA (setting [3]) is 12 ± 1 s. Further, the “time constant (τ) of TPC2 activation” value in the assay on TPC2^LL/AA (setting [3]) was determined as 17 ± 2 s. Moreover, in the assay on TPC2 I551R, the “activation of ITPC2-I551R (in words)” value is “failed to affect LyNa-VA1.2 activation”.

As to `Nc1nc2ccc(OC(F)(F)F)cc2s1` [LyNA1, Riluzole], the “activation of whole-cell currents in non-transfected cells (in words)” value in assay [1] is given as “not in non-transfected HEK293 cells”. For the same molecule, the “activation of whole-endolysosome ITRPML1 (in words)” value in the assay on TRPML1 is recorded as “no current activation; also recorded: lack of the activation effects”.
